Reference: PubChem BioAssay (NCI)
Where “and” joins values, the source holds several entries; their conditions need not be identical. Equal values may be shown once.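 Grown in 96-well plates, cells were treated for 48 hours with each compound at five concentrations. Insufficient inhibition: endpoint recorded as highest concentration tested. GI50 is the concentration that inhibits growth by half. Definition used: TGI = concentration required for complete inhibition of growth.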

Experiments:
Experiment in all cases: DTP human tumour cell line panel, 48 h
CAKI-1 renal = tested on: CAKI-1 renal
DU-145 prostate = tested on: DU-145 prostate
HT29 colon = tested on: HT29 colon
OVCAR-4 ovarian = tested on: OVCAR-4 ovarian
RPMI-8226 leukemia = tested on: RPMI-8226 leukemia
SK-MEL-28 melanoma = tested on: SK-MEL-28 melanoma
SK-MEL-5 melanoma = tested on: SK-MEL-5 melanoma
T-47D breast = tested on: T-47D breast
U251 CNS = tested on: U251 CNS
UACC-62 melanoma = tested on: UACC-62 melanoma

SMILES	GI50 (CAKI-1 renal)	TGI (CAKI-1 renal)	GI50 (DU-145 prostate)	TGI (DU-145 prostate)	GI50 (HT29 colon)	TGI (HT29 colon)	GI50 (OVCAR-4 ovarian)	TGI (OVCAR-4 ovarian)	GI50 (RPMI-8226 leukemia)	TGI (RPMI-8226 leukemia)	GI50 (SK-MEL-28 melanoma)	TGI (SK-MEL-28 melanoma)	GI50 (SK-MEL-5 melanoma)	TGI (SK-MEL-5 melanoma)	GI50 (T-47D breast)	TGI (T-47D breast)	GI50 (U251 CNS)	TGI (U251 CNS)	GI50 (UACC-62 melanoma)	TGI (UACC-62 melanoma)
Cc1ccccc1C1=C(c2cn(C)c3ccccc23)C(=O)NC1=O	10.2 µM	> 25 µM	23.7 µM	> 25 µM	12.1 µM	> 25 µM	> 21.1 µM	> 25 µM	20 µM	> 25 µM	> 25 µM	> 25 µM	16 µM	> 25 µM	17.8 µM	> 25 µM	13.2 µM	> 25 µM	> 20.5 µM	> 25 µM
CS(=O)(=O)CCNCc1ccc(-c2ccc3ncnc(Nc4ccc(OCc5cccc(F)c5)c(Cl)c4)c3c2)o1		> 10 µM and > 25 µM and 27.7 µM	7.11 µM and 2.61 µM and 6.75 µM	> 10 µM and > 100 µM and 34.8 µM	7.36 µM and 2.2 µM	> 10 µM and 15.8 µM	> 10 µM and 7.8 µM and 6.78 µM	> 10 µM and > 86.9 µM and 23.3 µM	3.54 µM and 2.82 µM and 1.58 µM	> 10 µM and > 29.4 µM and 7.05 µM	> 10 µM and 4.37 µM and 3.35 µM	> 10 µM and 16.5 µM and 18.9 µM	3.21 µM and 4.34 µM	22.9 µM and 15.4 µM		> 10 µM and > 100 µM and 37.6 µM	> 10 µM and 6.7 µM and 9.36 µM	> 10 µM and > 100 µM and 24.9 µM	> 10 µM and 6.68 µM and 9.22 µM	> 10 µM and > 100 µM and 23.1 µM
COc1cc2c(NCCCCCO)ncnc2c(OC)c1OC		> 100 µM		> 100 µM		> 100 µM		> 100 µM		> 100 µM		> 100 µM		> 100 µM		> 100 µM		> 100 µM		> 100 µM
N#CC1C[C@@H]2CC3(CCC2CN1C(=O)c1ccccc1)OCCO3 (stereo partly specified)	> 100 µM	> 100 µM	> 100 µM	> 100 µM		> 100 µM		> 100 µM		> 100 µM		> 100 µM		> 100 µM	> 100 µM	> 100 µM		> 100 µM		> 100 µM
Oc1cc(N2CC2)c(O)cc1N1CC1	0.086 µM	0.332 µM	0.254 µM	1.37 µM	0.384 µM	6.79 µM	2.28 µM	8.9 µM	1.53 µM	9.74 µM	1.71 µM	4.2 µM	0.874 µM	2.99 µM	1.1 µM	6.48 µM	0.577 µM	10.7 µM	0.918 µM	2.91 µM
ClCCCSSCCCCl		> 100 µM		> 100 µM		> 69.1 µM		> 90.7 µM		> 100 µM		> 100 µM		> 100 µM		> 100 µM		> 100 µM		> 100 µM
CN1CCN(C(=O)[C@@]2(C)CC[C@]3(C)CC[C@]4(C)C(=CC[C@@H]5[C@@]6(C)CCC(=O)NC(C)(C)[C@@H]6CC[C@]54C)[C@@H]3C2)CC1	2.36 µM	6.48 µM	3.44 µM	12.1 µM	1.5 µM	3.35 µM	2.94 µM	13 µM	1.43 µM	3.74 µM	1.56 µM	2.97 µM	1.64 µM	3.06 µM	1.62 µM	4.21 µM	1.38 µM	2.82 µM	1.55 µM	3.03 µM
CNS(=O)(=O)OCC1OC(n2cnc3cncnc32)C(O)C1O (stereo unspecified)	> 100 µM	> 100 µM	> 100 µM	> 100 µM	> 100 µM	> 100 µM	> 100 µM	> 100 µM	> 100 µM	> 100 µM	> 100 µM	> 100 µM	> 100 µM	> 100 µM	> 100 µM	> 100 µM	> 100 µM	> 100 µM	> 100 µM	> 100 µM
COc1cc(-c2cc3ncccc3c3nc(OCCN(C)C)c4cccnc4c23)cc(OC)c1OC	0.468 µM	3.14 µM	0.5 µM	> 100 µM	0.383 µM	> 100 µM	0.418 µM	2.52 µM	0.372 µM	2.79 µM	0.639 µM	2.42 µM	0.468 µM	1.96 µM	0.769 µM	37 µM	0.391 µM	1.66 µM	0.42 µM	2.45 µM
CC(=O)OCC12CN(C#N)C3C4COC(CC41)C1(C(=O)N(C)c4ccccc41)C32 (stereo unspecified)		82.9 µM		37.7 µM		> 100 µM		49.6 µM		> 100 µM		62.9 µM		86.3 µM		62.7 µM		> 100 µM		52.2 µM
Cc1ccc(-c2nc3nc(-c4ccc(F)cc4)nc(N4CCNCC4)c3o2)cc1	1.55 µM	2.92 µM	2.6 µM	6.45 µM	1.86 µM	3.93 µM	1.89 µM	3.5 µM	2.36 µM	5.49 µM	14.9 µM	28.7 µM	15.4 µM	29 µM	2.3 µM	6.92 µM	1.95 µM	4.03 µM	15.4 µM	29.9 µM
C[C@H](c1ccc(F)cc1CCCC(=O)O)N(c1cc(F)ccc1F)S(=O)(=O)c1ccc(Cl)cc1	17.6 µM	> 81.2 µM	34 µM	> 100 µM	35.3 µM	> 100 µM	26.8 µM	> 89.9 µM	30 µM	> 88.5 µM	22.1 µM	65.5 µM	17.5 µM	38 µM	19.2 µM	> 83.9 µM	31.9 µM	> 100 µM	14.2 µM	39.2 µM
OCc1ccc(-c2csc(-c3ccc(CO)o3)c2)o1	41.5 µM	> 100 µM	37.7 µM	> 100 µM	36.6 µM	> 100 µM	6.43 µM	> 100 µM	28.3 µM	> 100 µM	34.2 µM	> 100 µM	17.5 µM	41.5 µM	1.44 µM	40 µM	29.7 µM	> 100 µM	0.767 µM	33.7 µM
Cn1cc(C2=C(c3c4n(c5ccccc35)CCNC4)C(=O)NC2=O)c2ccccc21	5.85 µM	> 22.3 µM	12.6 µM	> 25 µM	5.2 µM	> 25 µM	> 9.74 µM	> 25 µM	10.1 µM	> 22.3 µM	> 15.3 µM	> 25 µM	4.82 µM	> 17.2 µM	> 21.2 µM	> 25 µM	9.23 µM	> 25 µM	7.63 µM	> 25 µM
Fc1cc(F)c(F)c(S)c1F		> 100 µM		> 100 µM		> 100 µM		> 100 µM		> 100 µM		> 100 µM		> 100 µM		> 100 µM		> 100 µM		> 100 µM
O=C(Cn1c(C(=O)c2ccc(Cl)cc2)nc(-c2ccc(Cl)cc2)c1-c1ccc(Cl)cc1)c1ccccc1	> 100 µM	> 100 µM	> 100 µM	> 100 µM	> 100 µM	> 100 µM	> 100 µM	> 100 µM	> 100 µM	> 100 µM	> 100 µM	> 100 µM	> 100 µM	> 100 µM	> 100 µM	> 100 µM	> 100 µM	> 100 µM	> 100 µM	> 100 µM
O=C(/C=C/C12c3ccccc3C(c3ccccc31)C1C(=O)N(c3ccc(Cl)cc3)C(=O)C12)c1ccccn1 (stereo unspecified)	1.07 µM	4.95 µM	0.283 µM	0.747 µM	0.335 µM	8.67 µM	0.478 µM	> 30.9 µM	0.234 µM	0.682 µM	0.342 µM	1.61 µM	0.515 µM	1.21 µM	0.312 µM	4.15 µM	0.256 µM	0.74 µM	0.279 µM	0.973 µM
Cc1ccc([Se](=C(C(=O)c2ccccc2)C(=O)c2ccccc2)c2ccc(C)cc2)cc1		57.7 µM		> 100 µM		35.2 µM		50.1 µM		22.4 µM		> 100 µM		37.2 µM		> 100 µM		68.2 µM		51.5 µM
CC(c1cc(Cl)ccc1O)c1cc(Cl)ccc1O	2.61 µM	16.4 µM	5.2 µM	16.3 µM	2.74 µM	9.13 µM	5.24 µM	22.8 µM	3.73 µM	9.89 µM	4.13 µM	17 µM	3.41 µM	10 µM	3.85 µM	18.7 µM	3.93 µM	14.5 µM	3.58 µM	15 µM
O=C(O)CCCCn1ccc(=O)[nH]c1=O		> 100 µM		> 100 µM		> 100 µM		> 100 µM		> 100 µM		> 100 µM		> 100 µM		> 100 µM		> 100 µM		> 100 µM
O=C([O][Hg][c]1ccccc1)c1ccccc1	1.8 µM	3.66 µM	1.95 µM	4.13 µM	2.94 µM	9.82 µM	1.36 µM	6.22 µM	1.23 µM	4.56 µM	1.45 µM	2.93 µM	1.53 µM	3.06 µM	0.475 µM	2.43 µM	1.38 µM	2.8 µM	1.55 µM	4.18 µM
N#Cc1c(NCc2ccccc2)nc(NCc2ccccc2)c(C#N)c1-c1ccc(Cl)cc1	> 100 µM	> 100 µM	> 50 µM and 52.8 µM	> 100 µM	> 100 µM	> 100 µM	> 50 µM and 23.9 µM	> 100 µM	> 50 µM and 50.3 µM	> 100 µM	> 50 µM and 59 µM	> 100 µM	> 100 µM	> 100 µM	> 100 µM	> 100 µM	> 50 µM and 19.2 µM	> 50 µM and 40.8 µM	> 50 µM and 37.8 µM	> 100 µM
C/C(CCC(=O)O)=N/Nc1ccc([N+](=O)[O-])cc1	3.69 µM	> 100 µM	> 100 µM	> 100 µM	> 100 µM	> 100 µM	> 100 µM	> 100 µM	57.7 µM	> 100 µM	> 100 µM	> 100 µM	10.1 µM	> 100 µM	3.66 µM	> 100 µM	> 100 µM	> 100 µM	0.492 µM	62.3 µM
Cc1cc(Cl)nc2ccc(Cc3ccc4nc(Cl)cc(C)c4c3)cc12		> 100 µM		> 100 µM		> 100 µM		> 100 µM		> 100 µM		> 100 µM		> 100 µM		54.8 µM		79.3 µM		> 100 µM
CCCCCCCCCCCCCC[n+]1ccccc1	0.833 µM	5.43 µM	1.17 µM	2.85 µM	0.269 µM	1.46 µM	0.32 µM	2.91 µM	0.303 µM	1.33 µM	1.31 µM	3.03 µM	0.369 µM	1.43 µM	0.486 µM	7.54 µM	0.426 µM	1.77 µM	0.96 µM	2.34 µM
COC(=O)C1=COC2OC3C(C(C)O)C(=O)OC34C=CC1C24 (stereo unspecified)		> 100 µM		> 100 µM		> 100 µM		> 100 µM		90.8 µM		> 100 µM		> 100 µM		> 100 µM		> 100 µM		79.1 µM
Oc1c(C(Nc2ccccn2)c2cccc(Oc3ccccc3)c2)ccc2cccnc12 (stereo unspecified)	0.319 µM	10 µM	0.774 µM	16.2 µM	1.63 µM	30.1 µM	0.361 µM	13.4 µM	0.6 µM	84 µM	0.63 µM	17.8 µM	0.388 µM	2.16 µM	0.785 µM	33.2 µM	0.362 µM	14 µM	0.31 µM	1.29 µM
O=C(CN1CCN(Cc2ccccc2Cl)CC1)NC1CC(=O)c2c(Br)sc(Br)c21 (stereo unspecified)	19.9 µM	37.6 µM	18.8 µM	33.6 µM	18 µM	32.2 µM	18.9 µM	34.4 µM	16.6 µM	38.5 µM	18.1 µM	32.2 µM	20.3 µM	38.7 µM	21.6 µM	43.9 µM	19.7 µM	35.3 µM	16.3 µM	31 µM
